{"source": "patent US20220265691A1", "about": "“METHODS FOR USE OF GENE EXPRESSION AS AN INDICATOR OF E-SELECTIN INHIBITOR EFFICACY AND CLINICAL OUTCOME FOR MULTIPLE TUMOR TYPES” (GLYCOMIMETICS, INC., priority 2019, published 2022)", "key": {"[1]": {"test_system": "relapsed or refractory AML", "assay": "Phase I/II trial of Formula I in combination with chemotherapy for AML", "format": "in vivo, human", "conditions": "for overall survival (OS): Formula I plus chemotherapy", "experimental": "Phase I/II trial of Formula I in combination with chemotherapy for AML: A specific glycomimetic antagonist of E-selectin (Formula I) was rationally designed based on the bioactive conformation of sialyl Le^a/x in the binding site of E-selectin. Treatment of AML relapsed/refractory patients with the compound of Formula I and chemotherapy were evaluated for response. In a Phase I trial, 19 patients were treated with the compound of Formula I twice a day at 5 mg/kg (n=6), 10 mg/kg (n=7), and 20 mg/kg doses (n=6), in combination with induction MEC (mitoxantrone, epotoside, and cytarabine) chemotherapy. In a Phase II trial, the treatment regimen comprised one 10 mg/kg dose of the compound of Formula I 24 hours prior to chemotherapy, then twice daily 10 mg/kg doses of the compound of Formula I throughout either MEC (mitoxantrone, etoposide, and cytarabine) or 7+3 (cytarabine for 7 days followed by 3 days of daunorubicin, idarubicin or mitoxantrone) chemotherapy up till 48 hours post-chemotherapy. AML blasts from the patients' bone marrow and peripheral blood were isolated, and the expression of E-selectin ligand on the blasts was measured using immunofluorescence. Patient response to treatment was also assessed."}, "[2]": {"target": "T1, E-selectin (Homo sapiens, UniProt P16581)", "T1 construct": "fused on or other part: Immunoglobulin (Ig) part fused to E-selectin as a handle for immobilisation", "T1 sequence (P16581 22-175 limits assumed)": "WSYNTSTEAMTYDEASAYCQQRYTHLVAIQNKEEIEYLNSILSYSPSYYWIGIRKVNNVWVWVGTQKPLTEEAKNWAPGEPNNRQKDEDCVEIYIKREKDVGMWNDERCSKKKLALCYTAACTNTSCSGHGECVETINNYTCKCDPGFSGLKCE", "assay": "E-Selectin Activity - competitive binding assay (sLea polyacrylamide / immobilized E-selectin/Ig chimera)", "conditions": "inhibition of sLea conjugate binding to immobilized E-selectin/Ig chimera; read-out: IC50 (E-Selectin Antagonist Activity)", "experimental": "The inhibition assay to screen and characterize antagonists of E-selectin is a competitive binding assay, from which IC50 values may be determined. E-selectin/Ig chimera are immobilized in 96 well microtiter plates by incubation at 37° C. for 2 hours. To reduce nonspecific binding, bovine serum albumin is added to each well and incubated at room temperature for 2 hours. The plate is washed and serial dilutions of the test compounds are added to the wells in the presence of conjugates of biotinylated, sLea polyacrylamide with streptavidin/horseradish peroxidase and incubated for 2 hours at room temperature.\nTo determine the amount of sLe^a bound to immobilized E-selectin after washing, the peroxidase substrate, 3,3′,5,5′ tetramethylbenzidine (TMB) is added. After 3 minutes, the enzyme reaction is stopped by the addition of H3PO4, and the absorbance of light at a wavelength of 450 nm is determined. The concentration of test compound required to inhibit binding by 50% is determined."}}}
{"smiles": "CCC1CC(C(=O)NCCNC(=O)CCOCCOCCOCCOCCOCCOCCOCCOCCOCCOCCOCCOC)C[C@@H](O[C@@H]2O[C@@H](CO)[C@H](O)C(O[C@@H](CC3CCCCC3)C(=O)O)C2NC(C)=O)[C@@H]1OC1O[C@@H](C)[C@H](O)C(O)[C@@H]1O", "note": "(some centres unmarked) [compound of Formula I]", "values": [{"measurement": "overall survival (OS)", "setting": "[1]; patients with greater than 10% of blasts expressing E-selectin ligand (HECA-452; high expressers)", "value": 12.7, "unit": "months"}, {"measurement": "overall survival (OS)", "setting": "[1]; patients with less than 10% blasts expressing E-selectin ligand (HECA-452; low expressers)", "value": 5.2, "unit": "months"}, {"measurement": "response rate (CR/CRi)", "setting": "[1]; patients with relapsed or refractory AML, compound of Formula I plus chemotherapy", "value": 41, "unit": "%"}, {"measurement": "CR/CRi rate after a single course of induction treatment", "setting": "[1]; relapsed or refractory AML, single course of induction, higher than historical controls treated with MEC", "value": 47, "unit": "%"}]}
{"smiles": "CCC1CC(C(=O)NCCNC(=O)c2cn(CC(COS(=O)(=O)O)(COS(=O)(=O)O)COS(=O)(=O)O)nn2)C[C@@H](O[C@@H]2OC(CO)[C@H](O)C(O[C@@H](CC3CCCCC3)C(=O)O)C2NC(=O)Cn2cc(COCCOCCOCCOCCOCc3cn(CC(=O)NC4C(O[C@@H](CC5CCCCC5)C(=O)O)[C@@H](O)C(CO)O[C@H]4O[C@@H]4CC(C(=O)NCCNC(=O)c5cn(CC(COS(=O)(=O)O)(COS(=O)(=O)O)COS(=O)(=O)O)nn5)CC(CC)C4O[C@@H]4OC(C)[C@@H](O)C(O)C4O)nn3)nn2)C1O[C@@H]1OC(C)[C@@H](O)C(O)C1O", "note": "(some centres unmarked) [Compound 206]", "values": [{"measurement": "IC50", "setting": "[2]", "value": 1.6, "unit": "nM"}]}
